Assay results from US11884682B2, “Compounds and their uses as MIF inhibitors” (NANJING IMMUNOPHAGE BIOTECH CO., LTD., priority 2020, dated 2024).

Legend:
MIF = MIF (Homo sapiens (Human), UniProt P14174); experiment: MIF tautomerase assay using pHPP as substrate; assay type: biochemical; settings: cell-free, pHPP substrate 1.5 mM, MIF 3 nM; mean pIC50 of multiple test results
Procedure: Tautomerase Assay Using pHPP as substrate
This assay measured MIF's tautomerase activity in a cell-free system and was based on the determination of initial rates of the MIF-catalyzed conversion of the ketonic into the enolic tautomer of pHPP. This was achieved by spectrophotometric quantification of the complex between borate and the product of the reaction (enolic pHPP). The substrate was prepared by conversion of the enolic pHPP into its ketonic form. To achieve this, 0.5 M pHPP in methanol was diluted 10-fold with 50 mM sodium acetate buffer at pH 6.0, and then the suspension was shaken for 24 h at room temperature in darkness, and finally stored at 4° C. for not more than 1 week, with 5 min sonication being recommended before use.
Assays were performed in small-volume clear-bottom black 96 or 384-well polystyrene plates (Greiner Bio-One). First, 2 μL of the enzyme solution containing 6 nM of MIF in DPBS, 0.025% w/v BSA, and 300 μM CHAPS was dispensed onto sample and negative control wells using Multidrop Combi with metallic tip cassettes (Thermo Fisher Scientific) previously treated with Sigmacote. Then, 2 μL of the same buffer without MIF was dispensed onto positive control wells. The reaction was started by addition of the following to all wells: 2 μL of substrate solution containing 3 mM ketonic pHPP in 200 mM boric acid, 25 mM sodium phosphate, 0.025% w/v BSA, and 300 μM CHAPS at pH 6.0. In order to remove bubbles, the plate was centrifuged in an Allegra 25R centrifuge (Beckman Coulter, Inc., Brea, CA) at 1000 rpm for 2 min at room temperature. Then, the plate was read in an EnVision. Final concentrations of enzyme and substrate were 3 nM and 1.5 mM, respectively. Initial rates were calculated for each well as the slope of the absorbance progress curve.
(§1) The data mentioned below represents a mean pIC50 value of multiple test results. It is understood that the data illustrated below may have reasonable variation depending on the specific conditions and procedures used by the person conducting the testing.

BV2 cells = experiment: BV2 cell proliferation assay (CCK-8); assay type: cell-based; settings: Mus musculus, BV-2, 48 h treatment, CCK-8, top concentration 33.3 μM, mean pIC50 of multiple test results, read-out: BV2 Profileration pIC50 (converted)
Excerpt: (§2) The assay measures the ability of a compound to inhibit cell proliferation using Cell Counting Kit-8 (CCK-8), which allows sensitive colorimetric assays for the determination of cell viability in cell proliferation and cytotoxicity assays. The highly water-soluble tetrazolium salt, WST-8, is reduced by dehydrogenase activities in cells to give a yellow-color formazan dye, which is soluble in the tissue culture media. The amount of the formazan dye, generated by the activities of dehydrogenases in cells, is directly proportional to the number of living cells.
(§3) The assay was performed based on the instruction of the manufacturer (Dojindo Molecular Technologies Inc., Rockville, MD, USA). To start the assay, BV2 cells were seeded at a density of […] into 96-well plates and treated with test compounds, which were used at a top final assay concentration of 33.3 μM, diluted in assay medium with 1:3 dilutions to produce 10 point concentration responses, for 48 h. After incubation, the CCK-8 solution (10 μl) was added to each well of the plate and the plates were incubated in incubator at 37° C. for 3 h. Absorbance was recorded three times independently using a microplate reader (Bio-Rad Laboratories, Richmond, CA, USA) at 450 nm.
as §1, with “Selected examples were tested in the BV2 cell proliferation. The” for “The”

U251 cell = U251 cell proliferation assay (CCK-8); assay type: cell-based; settings: Homo sapiens, U-251; U251 cells; read-out: U251 Profileration pIC50 (converted)
Excerpt: [The source words this procedure for another cell line and reports this cell line under the same test.] as §2, §3

Chain of MIF (P14174 2-115): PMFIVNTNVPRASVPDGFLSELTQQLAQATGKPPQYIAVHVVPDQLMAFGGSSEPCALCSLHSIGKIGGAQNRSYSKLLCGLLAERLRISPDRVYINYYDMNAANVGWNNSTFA

Structure (SMILES)	Tautomerase Inhibition pIC50 (MIF)	IC50 (U251 cell) [µM]	IC50 (BV2 cells) [µM]
COc1cc(N2CCOCC2)ccc1C(=O)NCc1nnc(-c2ccccc2)o1 [Compound 63, 2-methoxy-4-morpholino-N-((5-phenyl-1,3,4-oxadiazol-2-yl)methyl)benzamide]	<5	> 1000	21.4
COc1cc(OCCO)ccc1C(=O)Nc1nnc(-c2cccs2)o1 [Compound 17, 4-(2-hydroxyethoxy)-2-methoxy-N-(5-(thiophen-2-yl)-1,3,4-oxadiazol-2-yl)benzamide]	7.98	> 1000	11.5
O=C(NCc1nnc(-c2cccs2)o1)c1ccccc1F [Compound 44, 2-fluoro-N-((5-(thiophen-2-yl)-1,3,4-oxadiazol-2-yl)methyl)benzamide]	<5	> 1000	45.7
COc1cc(NC2CCN(C)C2)ccc1C(=O)NCc1nnc(-c2cccs2)o1 (stereo not drawn) [Compound 76, 2-methoxy-4-((1-methylpyrrolidin-3-yl)amino)-N-((5-(thiophen-2-yl)-1,3,4-oxadiazol-2-yl)methyl)benzamide]	1.77	> 1000	> 1000
COc1cc(OCc2nn[nH]n2)ccc1C(=O)Nc1nnc(-c2cccs2)o1 [Compound 22, 4-((2H-tetrazol-5-yl)methoxy)-2-methoxy-N-(5-(thiophen-2-yl)-1,3,4-oxadiazol-2-yl)benzamide]	7.91	> 1000	> 1000

Further lines, with some results ahead:

Tautomerase Inhibition pIC50 (MIF)	IC50 (U251 cell) [µM]	Structure (SMILES)	IC50 (BV2 cells) [µM]
6.13	> 1000	COc1cc(N2CCCCC2)ccc1C(=O)NCc1nnc(-c2cccs2)o1 [Compound 56, 2-methoxy-4-(piperidin-1-yl)-N-((5-(thiophen-2-yl)-1,3,4-oxadiazol-2-yl)methyl)benzamide]	16.2
4.20	> 1000	COc1cc(N2CCOCC2)ccc1C(=O)N(C)Cc1nnc(-c2cccs2)o1 [Compound 52, 2-methoxy-N-methyl-4-morpholino-N-((5-(thiophen-2-yl)-1,3,4-oxadiazol-2-yl)methyl)benzamide]	3.63
5.95	> 1000	COc1cc(N2CCNCC2)ccc1C(=O)NCc1nnc(-c2cccs2)o1 [Compound 58, 2-methoxy-4-(piperazin-1-yl)-N-((5-(thiophen-2-yl)-1,3,4-oxadiazol-2-yl)methyl)benzamide]	35.5
<5	> 1000	COc1cc(N2CCOCC2)ccc1NC(=O)c1nnc(-c2cccs2)o1 [Compound 75, N-(2-methoxy-4-morpholinophenyl)-5-(thiophen-2-yl)-1,3,4-oxadiazole-2-carboxamide]	28.2
